Test results reported in patent US20210023120A1, “COMPOSITIONS FOR THE DELIVERY OF tRNA AS NANOPARTICLES AND METHODS OF USE THEREWITH” (The Board of Regents of the University of Texas System, priority 2016, published 2021).

Tested on: p53
Assay: Nanoparticle carrier screen in Calu6 cells (p53 Western blot)
Type: cell-based
Conditions: nmP53 (R196X), exogenous tRNAArg/OP, 48 hr exposure, FIGS. 6B, 9, 10, 12
Experimental: Calu6 cells were seeded at a density of 500,000 cells per well in a 6-well format and allowed to attach over night. For plasmid DNA, 1 μg was transfected using 3 μl of Lipofectamine 2000 using manufacturer recommend protocols. For tRNA^Arg/RNAiMax, 4 μg was transfected using 3 μl of RNAiMax using manufacturer recommended protocols. Particles were diluted in Opti-MEM (Invitrogen), G418 (50 μg) and PTC124 ([…]) was added directly to the media. Nanoparticles were prepared by mixing all delivery components in ethanol, followed by rapid mixing with tRNA in 10 mM citrate buffer pH 4.3, such that the final mole ratio was 25:1 carrier:siRNA, and the carrier mixture of the formulation consisted of molar ratios 50:38:10:2 carrier: cholesterol: DSPC: PEG-lipid. […] After 48 hr, cells were lysed directly in 2× Sample Buffer ((Tris-HCL 250 mM, pH 6.8, 20% Glycerol, 2.5% SDS, 0.1% Bromophenol blue). Cell lysate proteins were separated by electrophoresis on 10% (wt/vol) polyacrylamide gels using a Tris-glycine buffering system and transferred to polyyinylidene fluoride Immobilon membranes (EMD Millipore). Western blot analysis was performed using primary p53 antibody (Santa Cruz Biotechnology, Inc) actin antibody (EMD Millipore), and secondary antibody IRdye-68ORD (Li-Cor) and imaged/quantified using a Li-Cor Odyssey CLx (Li-Cor).

| Compound | p53 expression (Western blot) |
| --- | --- |
| CN[C@@H]1[C@@H](O)[C@@H](O[C@@H]2[C@@H](O)[C@H](O[C@H]3O[C@H]([C@@H](C)O)[C@@H](O)[C@H](O)[C@H]3N)[C@@H](N)C[C@H]2N)OC[C@]1(C)O [G418] | only minimal p53 expression |
| O=C(O)c1cccc(-c2noc(-c3ccccc3F)n2)c1 [PTC124] | only minimal p53 expression |
